# Patent publication US20090264384A1, “INDOLE, BENZIMIDAZOLE, AND BENZOLACTAM BORONIC ACID COMPOUNDS, ANALOGS THEREOF AND METHODS OF USE THEREOF” (Nuada, Inc., priority 2004, published 2009)
# Key:
# K^+V channel = K^+V channel binding assay; parameters: species or system rat
# ETA(h) = molecular target: T1, ETA(h) (Homo sapiens, UniProt P25101); assay: ETA(h) binding assay
# T1 construct: expressed in transfected cells; host or cells: CHO cells
# σ (non-selective) = σ (non-selective) binding assay; parameters: species or system rat
# 5-HT transporter(h) = molecular target: T2, 5-HT transporter(h) (Homo sapiens, UniProt P31645); assay: 5-HT transporter(h) binding assay; conditions: Hill coefficient, reference compound
# T2 construct: expressed in transfected cells; host or cells: HEK-293 cells
# Cl-channel = Cl-channel binding assay; parameters: species or system rat; conditions: Hill coefficient, reference compound
# AT2(h) = molecular target: T3, AT2(h) (Homo sapiens, UniProt P50052); assay: AT2(h) binding assay; conditions: Hill coefficient, reference compound
# T3 construct: expressed in transfected cells; host or cells: Hela cells
# AT1(h) = molecular target: T4, AT1(h) (Homo sapiens, UniProt P30556); assay: AT1(h) binding assay; conditions: Hill coefficient, reference compound
# T4 construct: expressed in transfected cells; host or cells: CHO cells
# β1(h) = molecular target: T5, β1(h) (Homo sapiens, UniProt P08588); assay: β1(h) binding assay; conditions: Hill coefficient, reference compound
# T5 construct: expressed in transfected cells; host or cells: HEK-293 cells
# NK2(h) = molecular target: T6, NK2(h) (Homo sapiens, UniProt P21452); assay: NK2(h) binding assay
# T6 construct: expressed in transfected cells; host or cells: CHO cells
# GABA transaminase = molecular target: T7, GABA transaminase (Rattus norvegicus, UniProt P50554); assay: GABA transaminase enzyme assay; assay type: biochemical; conditions: GABA transaminase
# T7 construct: rat brain; from tissue; host or cells: rat brain
# Phosphodiesterase 2(h) = molecular target: T8, Phosphodiesterase 2(h) (Homo sapiens, UniProt O00408); assay: Phosphodiesterase 2(h) enzyme assay; assay type: biochemical; conditions: Phosphodiesterase 2(h)
# T8 construct: differentiated U-; endogenous in cells; host or cells: differentiated U-937 cells
# 5-HT (non-selective) = 5-HT (non-selective) binding assay; parameters: species or system rat; conditions: Hill coefficient, reference compound
# H3 = H3 binding assay; parameters: species or system rat
# NE transporter(h) = molecular target: T9, NE transporter(h) (Homo sapiens, UniProt P23975); assay: NE transporter(h) binding assay; conditions: Hill coefficient, reference compound
# T9 construct: expressed in transfected cells; host or cells: MDCK cells
# ETB(h) = molecular target: T10, ETB(h) (Homo sapiens, UniProt P24530); assay: ETB(h) binding assay; conditions: Hill coefficient, reference compound
# T10 construct: expressed in transfected cells; host or cells: CHO cells
# D2S(h) = molecular target: T11, D2S(h) (Homo sapiens, UniProt P14416); assay: biochemical; assay type: binding
# T11 construct: expressed in transfected cells; host or cells: CHO cells
# [1] = molecular target: Ca^2+ channel (L, diltiazem site) (benzothiazepines) (Rattus norvegicus, UniProt P22002); assay: Ca^2+ channel (L, diltiazem site) binding assay
# NK1(h) = molecular target: T12, NK1(h) (Homo sapiens, UniProt P25103); assay: NK1(h) binding assay; conditions: Hill coefficient, reference compound
# T12 construct: NK1(h); U-373MG cells; [Sar^9,Met(O2)^11]-SP; Heuillet et al. (1993); endogenous in cells; host or cells: U-373MG cells
# Y (non-selective) = Y (non-selective) binding assay; parameters: species or system rat; conditions: reference compound
# BZD (central) = BZD (central) binding assay; parameters: species or system rat; conditions: Hill coefficient, reference compound
# Tyrosine hydroxylase = molecular target: T13, Tyrosine hydroxylase (Rattus norvegicus, UniProt P04177); assay: Tyrosine hydroxylase enzyme assay; assay type: biochemical; conditions: Tyrosine hydroxylase
# T13 construct: rat striatum; from tissue; host or cells: rat striatum
# H2(h) = molecular target: T14, H2(h) (Homo sapiens, UniProt P25021); assay: H2(h) binding assay; conditions: Hill coefficient, reference compound
# T14 construct: expressed in transfected cells; host or cells: CHO cells
# Androgen(h) (AR) = molecular target: T15, Androgen(h) (AR) (Homo sapiens, UniProt P10275, T878A); assay: Androgen(h) (AR) binding assay
# T15 construct: LNCaP cells; endogenous in cells; host or cells: LNCaP cells (cytosol)
# Choline transporter = molecular target: T16, Choline transporter (Rattus norvegicus, UniProt Q9JMD7); assay: Choline transporter binding assay; conditions: reference compound
# T16 construct: rat striatum; from tissue; host or cells: rat striatum
# T16 sequence (Q9JMD7 1-580): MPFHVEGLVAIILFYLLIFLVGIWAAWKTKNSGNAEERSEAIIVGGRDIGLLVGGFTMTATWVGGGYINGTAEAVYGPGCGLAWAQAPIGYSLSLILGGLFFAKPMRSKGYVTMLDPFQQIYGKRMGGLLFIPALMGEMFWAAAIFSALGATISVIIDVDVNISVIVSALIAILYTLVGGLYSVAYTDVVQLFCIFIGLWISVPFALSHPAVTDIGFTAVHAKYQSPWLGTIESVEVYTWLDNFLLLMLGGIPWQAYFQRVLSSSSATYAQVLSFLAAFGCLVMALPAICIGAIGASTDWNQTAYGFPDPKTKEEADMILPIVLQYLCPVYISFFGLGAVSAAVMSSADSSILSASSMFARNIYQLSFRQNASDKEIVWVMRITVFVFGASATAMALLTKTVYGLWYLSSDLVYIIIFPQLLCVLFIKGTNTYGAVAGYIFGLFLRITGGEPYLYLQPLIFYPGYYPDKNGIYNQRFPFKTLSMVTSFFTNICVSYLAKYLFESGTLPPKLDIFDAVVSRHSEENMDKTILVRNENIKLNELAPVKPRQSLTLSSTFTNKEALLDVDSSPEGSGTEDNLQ
# [2] = molecular target: Ca^2+ channel (L, verapamil site) (phenylalkylamines); assay: Ca^2+ channel (L, verapamil site) binding assay; parameters: species or system rat
# B2(h) = molecular target: T17, B2(h) (Homo sapiens, UniProt P30411); assay: B2(h) binding assay
# T17 construct: expressed in transfected cells; host or cells: CHO cells
# TRH = TRH binding assay; parameters: species or system rat; conditions: reference compound
# [3] = molecular target: N (neuronal) (α-BGTX-insensitive) (Rattus norvegicus, UniProt P09483+P12390); assay: N (neuronal) (α-BGTX-insensitive) binding assay; conditions: Hill coefficient, reference compound
# DA transporter(h) = molecular target: T18, DA transporter(h) (Homo sapiens, UniProt Q01959); assay: DA transporter(h) binding assay
# T18 construct: expressed in transfected cells; host or cells: CHO cells
# M (non-selective) = M (non-selective) binding assay; parameters: species or system rat
# ATPase (Na^+/K^+) = molecular target: T19, ATPase (Na^+/K^+) (Canis lupus familiaris, UniProt P50997); assay: ATPase (Na^+/K^+) enzyme assay; assay type: biochemical, dog; conditions: ATPase (Na^+/K^+)
# T19 construct: dog kidney; from tissue; host or cells: dog kidney
# GABA (non-selective) = assay type: binding, rat; conditions: Hill coefficient, reference compound
# V2(h) = molecular target: T20, V2(h) (Homo sapiens, UniProt P30518); assay: V2(h) binding assay
# T20 construct: expressed in transfected cells; host or cells: CHO cells
# CRF1 = molecular target: T21, CRF1 (Rattus norvegicus, UniProt P35353); assay: CRF1 binding assay; conditions: Hill coefficient, reference compound
# T21 construct: from tissue; host or cells: rat pituitary gland
# NK3(h) = molecular target: T22, NK3(h) (Homo sapiens, UniProt P29371); assay: NK3(h) binding assay; conditions: Hill coefficient, reference compound
# T22 construct: expressed in transfected cells; host or cells: CHO cells
# T7 sequence (P50554 28-500): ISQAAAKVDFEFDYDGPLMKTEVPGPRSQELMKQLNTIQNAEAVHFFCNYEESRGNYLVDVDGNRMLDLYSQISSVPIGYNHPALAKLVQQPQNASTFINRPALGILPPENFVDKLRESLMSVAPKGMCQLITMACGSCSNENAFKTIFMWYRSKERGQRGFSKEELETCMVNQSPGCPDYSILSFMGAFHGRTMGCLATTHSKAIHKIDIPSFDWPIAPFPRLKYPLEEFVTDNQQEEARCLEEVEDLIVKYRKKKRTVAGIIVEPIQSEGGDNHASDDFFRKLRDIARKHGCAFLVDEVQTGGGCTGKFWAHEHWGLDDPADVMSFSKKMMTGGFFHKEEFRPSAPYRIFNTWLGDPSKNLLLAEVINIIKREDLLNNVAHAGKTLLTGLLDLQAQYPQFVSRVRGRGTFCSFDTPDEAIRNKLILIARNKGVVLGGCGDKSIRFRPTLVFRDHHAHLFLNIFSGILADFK
# T8 sequence (O00408 whole entry): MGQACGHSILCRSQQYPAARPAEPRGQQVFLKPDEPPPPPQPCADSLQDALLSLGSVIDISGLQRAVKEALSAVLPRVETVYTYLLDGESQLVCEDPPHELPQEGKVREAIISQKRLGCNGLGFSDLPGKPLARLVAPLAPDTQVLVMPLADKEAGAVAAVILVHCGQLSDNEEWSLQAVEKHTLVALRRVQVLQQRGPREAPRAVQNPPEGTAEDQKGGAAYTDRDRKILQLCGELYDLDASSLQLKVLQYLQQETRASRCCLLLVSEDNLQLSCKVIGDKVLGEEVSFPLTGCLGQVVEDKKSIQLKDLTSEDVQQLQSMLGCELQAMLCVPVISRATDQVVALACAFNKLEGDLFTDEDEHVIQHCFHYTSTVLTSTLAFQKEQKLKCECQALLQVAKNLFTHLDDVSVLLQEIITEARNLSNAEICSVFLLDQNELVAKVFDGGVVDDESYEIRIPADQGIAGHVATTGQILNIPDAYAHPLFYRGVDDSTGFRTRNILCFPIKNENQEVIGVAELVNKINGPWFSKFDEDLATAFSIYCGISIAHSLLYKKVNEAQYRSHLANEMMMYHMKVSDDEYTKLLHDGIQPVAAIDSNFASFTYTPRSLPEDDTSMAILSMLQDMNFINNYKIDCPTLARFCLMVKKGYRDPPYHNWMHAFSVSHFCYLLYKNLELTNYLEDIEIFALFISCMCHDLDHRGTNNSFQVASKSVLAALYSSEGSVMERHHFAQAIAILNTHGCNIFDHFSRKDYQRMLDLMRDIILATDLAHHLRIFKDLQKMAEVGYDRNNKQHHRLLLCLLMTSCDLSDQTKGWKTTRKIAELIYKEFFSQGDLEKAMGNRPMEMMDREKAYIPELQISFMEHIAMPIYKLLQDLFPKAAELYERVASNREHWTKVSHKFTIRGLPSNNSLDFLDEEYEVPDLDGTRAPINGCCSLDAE
# T13 sequence (P04177 whole entry): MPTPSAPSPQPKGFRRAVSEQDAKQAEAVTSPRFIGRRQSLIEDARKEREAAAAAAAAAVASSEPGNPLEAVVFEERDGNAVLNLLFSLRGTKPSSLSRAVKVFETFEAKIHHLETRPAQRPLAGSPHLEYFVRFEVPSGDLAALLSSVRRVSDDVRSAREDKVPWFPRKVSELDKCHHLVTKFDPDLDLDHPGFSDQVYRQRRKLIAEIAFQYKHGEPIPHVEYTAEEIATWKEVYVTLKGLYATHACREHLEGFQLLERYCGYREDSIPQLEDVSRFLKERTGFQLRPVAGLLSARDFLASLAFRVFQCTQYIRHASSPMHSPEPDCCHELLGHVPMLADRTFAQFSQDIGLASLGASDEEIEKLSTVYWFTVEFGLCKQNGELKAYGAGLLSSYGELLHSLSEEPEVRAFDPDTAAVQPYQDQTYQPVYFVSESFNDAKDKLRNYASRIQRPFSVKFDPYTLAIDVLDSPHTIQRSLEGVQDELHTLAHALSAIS
# T12 sequence (P25103 whole entry): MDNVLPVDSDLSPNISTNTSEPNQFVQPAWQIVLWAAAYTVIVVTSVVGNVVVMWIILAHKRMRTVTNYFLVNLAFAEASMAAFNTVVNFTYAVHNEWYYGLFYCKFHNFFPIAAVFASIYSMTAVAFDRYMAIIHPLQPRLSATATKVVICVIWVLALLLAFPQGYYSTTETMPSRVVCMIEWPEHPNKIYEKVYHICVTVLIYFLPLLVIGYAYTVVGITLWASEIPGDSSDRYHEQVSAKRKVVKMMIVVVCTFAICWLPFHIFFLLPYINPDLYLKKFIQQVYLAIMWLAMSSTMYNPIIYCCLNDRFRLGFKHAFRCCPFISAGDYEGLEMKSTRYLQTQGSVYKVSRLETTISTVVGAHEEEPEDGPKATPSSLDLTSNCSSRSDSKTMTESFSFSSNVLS
# T9 sequence (P23975 whole entry): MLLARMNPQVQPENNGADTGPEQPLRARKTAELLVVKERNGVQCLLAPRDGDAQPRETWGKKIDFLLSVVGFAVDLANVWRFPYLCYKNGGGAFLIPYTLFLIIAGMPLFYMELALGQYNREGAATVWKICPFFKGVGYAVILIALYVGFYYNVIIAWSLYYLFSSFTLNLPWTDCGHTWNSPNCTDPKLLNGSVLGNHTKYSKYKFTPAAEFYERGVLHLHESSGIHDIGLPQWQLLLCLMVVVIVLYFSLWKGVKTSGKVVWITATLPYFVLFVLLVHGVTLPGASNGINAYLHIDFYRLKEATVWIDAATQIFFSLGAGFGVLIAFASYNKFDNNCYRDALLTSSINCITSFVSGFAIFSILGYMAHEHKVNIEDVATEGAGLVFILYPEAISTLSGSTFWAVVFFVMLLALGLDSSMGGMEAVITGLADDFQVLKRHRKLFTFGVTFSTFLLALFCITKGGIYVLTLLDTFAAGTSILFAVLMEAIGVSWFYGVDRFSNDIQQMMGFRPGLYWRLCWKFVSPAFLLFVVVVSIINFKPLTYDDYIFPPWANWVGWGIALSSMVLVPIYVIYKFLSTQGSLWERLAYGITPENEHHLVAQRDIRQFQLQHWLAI
# T15 sequence (P10275 whole entry T878A): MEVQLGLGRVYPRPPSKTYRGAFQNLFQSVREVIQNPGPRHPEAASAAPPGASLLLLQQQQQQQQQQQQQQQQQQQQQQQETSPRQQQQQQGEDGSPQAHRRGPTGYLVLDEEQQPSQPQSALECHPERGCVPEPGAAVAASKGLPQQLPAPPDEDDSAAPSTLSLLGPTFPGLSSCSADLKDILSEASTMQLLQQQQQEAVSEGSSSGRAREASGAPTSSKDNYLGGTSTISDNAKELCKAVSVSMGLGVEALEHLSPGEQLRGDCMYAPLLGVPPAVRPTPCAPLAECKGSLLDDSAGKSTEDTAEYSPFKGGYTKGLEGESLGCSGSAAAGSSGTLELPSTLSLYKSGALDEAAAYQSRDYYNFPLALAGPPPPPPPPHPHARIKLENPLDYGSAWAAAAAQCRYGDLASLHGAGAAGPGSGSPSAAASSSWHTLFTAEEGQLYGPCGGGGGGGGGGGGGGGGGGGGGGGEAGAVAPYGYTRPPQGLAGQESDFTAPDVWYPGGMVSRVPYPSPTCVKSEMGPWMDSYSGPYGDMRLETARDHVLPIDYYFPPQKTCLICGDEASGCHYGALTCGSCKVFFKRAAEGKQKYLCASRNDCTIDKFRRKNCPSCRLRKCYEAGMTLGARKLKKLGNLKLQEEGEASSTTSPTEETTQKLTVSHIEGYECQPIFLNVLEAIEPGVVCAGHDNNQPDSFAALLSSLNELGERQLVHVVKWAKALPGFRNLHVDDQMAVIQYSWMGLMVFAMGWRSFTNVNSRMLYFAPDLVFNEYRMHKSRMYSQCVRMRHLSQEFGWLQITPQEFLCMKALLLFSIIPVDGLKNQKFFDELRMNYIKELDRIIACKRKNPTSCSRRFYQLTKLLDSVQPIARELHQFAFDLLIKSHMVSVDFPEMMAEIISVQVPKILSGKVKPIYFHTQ
# T4 sequence (P30556 whole entry): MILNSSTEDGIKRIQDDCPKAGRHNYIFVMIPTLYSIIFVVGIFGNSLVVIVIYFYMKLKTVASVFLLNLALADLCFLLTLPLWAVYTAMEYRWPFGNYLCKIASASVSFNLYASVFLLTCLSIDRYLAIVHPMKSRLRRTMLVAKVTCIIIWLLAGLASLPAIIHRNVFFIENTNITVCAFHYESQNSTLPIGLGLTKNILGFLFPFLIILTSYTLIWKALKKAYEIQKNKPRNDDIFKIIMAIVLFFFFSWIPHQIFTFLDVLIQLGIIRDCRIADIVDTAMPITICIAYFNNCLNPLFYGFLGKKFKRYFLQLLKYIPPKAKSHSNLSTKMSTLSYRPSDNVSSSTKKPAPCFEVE
# T11 sequence (P14416 1-414 isoform P14416-2): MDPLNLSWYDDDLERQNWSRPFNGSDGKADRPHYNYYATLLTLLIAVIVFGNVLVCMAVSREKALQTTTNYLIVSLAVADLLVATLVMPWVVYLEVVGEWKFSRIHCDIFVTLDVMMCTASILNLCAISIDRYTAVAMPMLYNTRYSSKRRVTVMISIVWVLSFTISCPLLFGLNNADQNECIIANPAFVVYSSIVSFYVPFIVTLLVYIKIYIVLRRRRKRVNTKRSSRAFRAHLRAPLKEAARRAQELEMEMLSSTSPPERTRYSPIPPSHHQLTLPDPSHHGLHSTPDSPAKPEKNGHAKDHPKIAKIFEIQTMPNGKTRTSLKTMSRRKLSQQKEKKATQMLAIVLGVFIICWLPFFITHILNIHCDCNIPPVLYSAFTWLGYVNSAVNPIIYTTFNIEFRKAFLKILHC
# T17 sequence (P30411 whole entry): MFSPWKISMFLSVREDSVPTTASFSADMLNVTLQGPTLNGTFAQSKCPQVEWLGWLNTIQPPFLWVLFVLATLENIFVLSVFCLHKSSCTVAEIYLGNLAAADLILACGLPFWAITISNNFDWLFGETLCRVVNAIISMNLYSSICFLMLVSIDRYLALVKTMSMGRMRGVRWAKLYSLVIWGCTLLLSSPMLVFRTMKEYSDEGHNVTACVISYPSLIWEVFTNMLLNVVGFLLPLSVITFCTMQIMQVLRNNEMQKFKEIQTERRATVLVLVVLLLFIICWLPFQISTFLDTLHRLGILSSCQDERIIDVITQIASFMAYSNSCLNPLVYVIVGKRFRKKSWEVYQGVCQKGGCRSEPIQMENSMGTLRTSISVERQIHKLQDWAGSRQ
molecule,measurement,setting,value
α-dendrotoxin,Ki,K^+V channel,1.1 nM
same,nH,K^+V channel,3.1
"endothelin-1 [endothelia-1, reference compound]",nH,ETA(h),1.1
"O=C(CCCN1CCC(O)(c2ccc(Cl)cc2)CC1)c1ccc(F)cc1 [haloperidol, reference compound]",nH,σ (non-selective),0.6
"CN(C)CCCN1c2ccccc2CCc2ccccc21 [imipramine, reference compound]",nH,5-HT transporter(h),1.0
"C=C(C)[C@@H]1[C@H]2OC(=O)[C@@H]1[C@]1(O)C[C@H]3O[C@]34C(=O)O[C@H]2[C@]14C [picrotoxinin, reference compound]",nH,Cl-channel,0.9
"CNCC(=O)N[C@@H](CCCN=C(N)N)C(=O)N[C@H](C(=O)N[C@@H](Cc1ccc(O)cc1)C(=O)N[C@H](C(=O)N[C@@H](Cc1cnc[nH]1)C(=O)N1CCC[C@H]1C(=O)N[C@@H](C)C(=O)O)C(C)C)C(C)C [saralasin, reference compound]",nH,AT2(h),0.8
same,nH,AT1(h),1.1
"CC(C)NCC(O)COc1ccc(CC(N)=O)cc1 (stereo not shown) [atenolol, reference compound]",nH,β1(h),0.7
[N1e^10]-NKA(4-10) [reference compound],nH,NK2(h),0.7
NOCC(=O)O [AoAA],nH,GABA transaminase; Hill coefficient,1.1
same,IC50,GABA transaminase; reference compound,210 nM
CCCCCC[C@@H]([C@@H](C)O)n1cnc2c(N)ncnc21 (racemic) [EHNA],nH,Phosphodiesterase 2(h); Hill coefficient,0.4
same,IC50,Phosphodiesterase 2(h); reference compound,4100 nM
"NCCc1c[nH]c2ccc(O)cc12 [serotonin, reference compound]",nH,5-HT (non-selective),0.9
"C[C@@H](N)Cc1cnc[nH]1 [(R)a-Me-histamine, (R)α-Me-histamine, reference compound]",nH,H3,1.0
"CNCCCC1c2ccccc2C=Cc2ccccc21 [protriptyline, reference compound]",nH,NE transporter(h),1.7
"endothelin-3 [endothelia-3, reference compound]",nH,ETB(h),2.4
(+)butaclamol [reference compound],nH,D2S(h),1.2
"COc1ccc([C@@H]2Sc3ccccc3N(CCN(C)C)C(=O)[C@@H]2OC(C)=O)cc1 [diltiazem, reference compound]",nH,[1],0.9
"[Sar^9,Met(O2)^11]-SP [reference compound]",nH,NK1(h),0.9
NPY,nH,Y (non-selective); Hill coefficient,1.3
same,IC50,Y (non-selective),0.99 nM
"CN1C(=O)CN=C(c2ccccc2)c2cc(Cl)ccc21 [diazepam, reference compound]",nH,BZD (central),1.2
N[C@@H](Cc1ccc(O)c(I)c1)C(=O)O [3-iodo L-tyrosine],nH,Tyrosine hydroxylase; Hill coefficient,1.1
same,IC50,Tyrosine hydroxylase; reference compound,990 nM
"CN/C(=N/CCSCc1nc[nH]c1C)NC#N [cimetidine, reference compound]",nH,H2(h),0.9
"C[C@]1(O)CC[C@H]2[C@@H]3CCC4=CC(=O)CCC4=C3C=C[C@@]21C [methyltrienolone, reference compound]",nH,Androgen(h) (AR),1.5
C[N+]1(C)CCOC(O)(c2ccc(-c3ccc(C4(O)C[N+](C)(C)CCO4)cc3)cc2)C1.[Br-].[Br-] (stereo not shown) [hemicholinium-3],nH,Choline transporter; Hill coefficient,0.7
same,IC50,Choline transporter,8 nM
same,Ki,Choline transporter; Cheng Prusoff,5.5 nM
COc1ccc(CCN(C)CCCC(C#N)(c2cc(OC)c(OC)c(OC)c2)C(C)C)cc1OC (stereo not shown) [D 600],Ki,[2],0.84 nM
same,nH,[2],0.6
NPC 567 [reference compound],nH,B2(h),0.6
TRH,nH,TRH; Hill coefficient,0.9
same,IC50,TRH,49 nM
same,Ki,TRH; Cheng Prusoff,30 nM
"CN1CCCC1c1cccnc1 (stereo not shown) [nicotine, reference compound]",nH,[3],1.1
"c1ccc2sc(C3(N4CCCCC4)CCCCC3)cc2c1 [BTCP, reference compound]",nH,DA transporter(h),0.5
"CN1[C@@H]2CC[C@H]1C[C@@H](OC(=O)C(CO)c1ccccc1)C2 (stereo partly shown) [atropine, reference compound]",nH,M (non-selective),1.2
C[C@@H]1O[C@@H](O[C@H]2C[C@@H](O)[C@]3(CO)[C@H]4[C@H](O)C[C@]5(C)[C@@H](C6=CC(=O)OC6)CC[C@]5(O)[C@@H]4CC[C@]3(O)C2)[C@H](O)[C@H](O)[C@H]1O [ouabain],nH,ATPase (Na^+/K^+); Hill coefficient,1.2
same,IC50,ATPase (Na^+/K^+); reference compound,920 nM
"NCCCC(=O)O [GAGA, GABA, reference compound]",nH,GABA (non-selective),1.3
AVP [reference compound],nH,V2(h),0.9
"CC[C@H](C)[C@H](NC(=O)[C@@H](NC(=O)[C@H](CCC(=O)O)NC(=O)[C@H](CCSC)NC(=O)[C@H](CC(C)C)NC(=O)[C@H](CCCCN)NC(=O)[C@H](CCCNC(=N)N)NC(=O)[C@H](CC(N)=O)NC(=O)[C@H](CO)NC(=O)[C@H](Cc1c[nH]cn1)NC(=O)[C@H](C)NC(=O)[C@H](CCC(N)=O)NC(=O)[C@H](CCC(N)=O)NC(=O)[C@H](C)NC(=O)[C@H](CC(C)C)NC(=O)[C@H](CCC(N)=O)NC(=O)[C@H](CCC(=O)O)NC(=O)[C@H](C)NC(=O)[C@H](CCCNC(=N)N)NC(=O)[C@H](C)NC(=O)[C@H](CCSC)NC(=O)[C@H](CCC(=O)O)NC(=O)[C@H](CC(C)C)NC(=O)[C@@H](NC(=O)[C@H](CCC(=O)O)NC(=O)[C@H](CCCNC(=N)N)NC(=O)[C@H](CC(C)C)NC(=O)[C@H](CC(C)C)NC(=O)[C@H](Cc1c[nH]cn1)NC(=O)[C@H](Cc1ccccc1)NC(=O)[C@@H](NC(=O)[C@H](CC(C)C)NC(=O)[C@H](CC(=O)O)NC(=O)[C@H](CC(C)C)NC(=O)[C@H](CO)NC(=O)[C@@H](NC(=O)[C@@H]1CCCN1C(=O)[C@@H]1CCCN1C(=O)[C@H](CCC(=O)O)NC(=O)[C@H](CCC(=O)O)NC(=O)[C@@H](N)CO)[C@@H](C)CC)[C@@H](C)O)C(C)C)[C@@H](C)CC)C(N)=O [CRF, reference compound]",nH,CRF1,0.6
"CC[C@H](NC(=O)c1c(C)c(-c2ccccc2)nc2ccccc12)c1ccccc1 [SB 222200, reference compound]",nH,NK3(h),1.1
